Assay results: patent publication US20130302311A1, “EMERGENCY INTERVENTIONS OF ACTIVE CHARCOAL WITH DABIGATRAN ETEXILATE OVERDOSING” (BOEHRINGER INGELHEIM INTERNATIONAL GMBH, priority 2009, published 2013)

Legend:
[1] = Binding of dabigatran etexilate to activated charcoal in water (simulated stomach fluid), HPLC; assay type: physicochemical; settings: for dabigatran etexilate level recovered by HPLC: untreated suspension (no charcoal), filtered
Experimental: In these experiments, binding of dabigatran etexilate to active charcoal in water simulates recent ingestion (2-5, preferably 2-3 hrs) of large amounts of dabigatran etexilate in the stomach fluid. Binding of dabigatran to active charcoal in plasma simulates situations where dabigatran was absorbed after ingestion and present in high concentrations in plasma. The contents of 5, 10 and 20 capsules (150 mg/capsule) of dabigatran etexilate were suspended in 100 ml water (approx. stomach volume, pH 2.7, 2.5 and 2.4, respectively). Each suspension was divided in half. To one portion a freshly prepared activated charcoal suspension (125 mg/ml, Ultracarbon®, Merck) was added. Both suspensions (with and without charcoal) were filtered and dabigatran etexilate concentrations were assessed via HPLC.

[2] = Binding of dabigatran to active charcoal in plasma, LC-MS/MS; assay type: physicochemical; settings: for dabigatran plasma level (mean±SD): untreated plasma (no charcoal)
Experimental: In these experiments, binding of dabigatran etexilate to active charcoal in water simulates recent ingestion (2-5, preferably 2-3 hrs) of large amounts of dabigatran etexilate in the stomach fluid. Binding of dabigatran to active charcoal in plasma simulates situations where dabigatran was absorbed after ingestion and present in high concentrations in plasma. In the plasma experiments, dabigatran was added to a plasma pool at supra-therapeutic concentrations of 470 and 940 ng/ml. The sample was then split, and active charcoal was added to half at the manufacturer's specified concentration (125 mg/ml), or 1:11 dilution of this. Dabigatran plasma levels were measured by a validated LC-MS/MS method.

dabigatran etexilate peak (HPLC) in charcoal-treated suspensions ([1]; activated charcoal suspension (125 mg/ml, Ultracarbon) added, all three tested concentrations)	dabigatran etexilate adsorbed by the activated charcoal ([1]; activated charcoal suspension (125 mg/ml, Ultracarbon), all three tested concentrations) [%]	dabigatran etexilate level recovered by HPLC ([1]; contents of 5 capsules (150 mg/capsule) in 100 ml water, pH 2.7) [mg/mL]	dabigatran etexilate level recovered by HPLC ([1]; contents of 10 capsules (150 mg/capsule) in 100 ml water, pH 2.5) [mg/mL]	dabigatran etexilate level recovered by HPLC ([1]; contents of 20 capsules (150 mg/capsule) in 100 ml water, pH 2.4) [mg/mL]	dabigatran plasma level after addition of activated charcoal ([2]; activated charcoal at 125 mg/ml or 1:11 dilution, dabigatran added at 470 and 940 ng/ml, close to or below lower limit of quantification) [ng/mL]	dabigatran plasma level (mean±SD) ([2]; dabigatran added at 470 ng/ml) [ng/mL]	dabigatran plasma level (mean±SD) ([2]; dabigatran added at 940 ng/ml) [ng/mL]	Structure (SMILES)
no longer detectable	> 99.9	8.3	15.6	29.6				CCCCCCOC(=O)NC(=N)c1ccc(NCc2nc3cc(C(=O)N(CCC(=O)OCC)c4ccccn4)ccc3n2C)cc1 [dabigatran etexilate]
					< 1.01	394 ± 19.4	824 ± 39.3	Cn1c(CNc2ccc(C(=N)N)cc2)nc2cc(C(=O)N(CCC(=O)O)c3ccccn3)ccc21 [dabigatran]
